Measurements from PubChem BioAssay AID1919004 (Molecular Pharmacology Branch, DTP, NCI, 2023).

System: 883617-216-R-J1-PDC complex spheroids, growth, % test/control
Test: Anticancer human tumor 883617-216-R-J1-PDC patient-derived bladder carcinoma cell line growth inhibition [AhR]
Details: for viability, T/C: stronger effect = lower value; active means viability on the fitted dose curve at most 10% of control; inactive means the rest
Excerpt: Multicellular complex tumor spheroid response to aryl hydrocarbon receptor antagonists in combination with a variety of drugs and investigational agents in selected tumor cell lines
The current study was undertaken to assess response to aryl hydrocarbon receptor antagonists in combination with standard-of-care drugs and investigational agents in solid tumor complex spheroid models. Complex spheroids include a stromal component modeled by human endothelial cells (HUVEC) and fibroblasts modeled by human mesenchymal stem cells (MSCs). The concentration ranges selected for each drug and investigational agent were based upon clinically achievable concentrations if the clinical Cmax of the agent was known.
Compounds. The drugs and investigational agents: BAY 2416964 (NSC825713), GNF351 (NSC835774), CH-223191 (NSC835775), CPI-455 (NSC825282), aza-TdCyd (NSC777586), decitabine (NSC127716), belinostat (NSC758774), entinostat (NSC756642), pevonedistat (NSC761192), tazemetostat (NSC777109), talazoparib (NSC765396), olaparib (NSC753686), selinexor (NSC780203), nedisertib (M3814, NSC802822), bortezomib (NSC756655), venetoclax (NSC766270), doxorubicin (NSC123127), elimusertib (BAY189344, NSC800525), ceralasertib (AZD6738, NSC777638), TAK-243 (NSC785004), alisertib (NSC759677), etoposide (NSC141540), topotecan (NSC609699), eribulin (NSC707389), gemcitabine (NSC613327), carboplatin (NSC241240), cisplatin (NSC119875), and SN-38 (NSC673596) were obtained from the National Cancer Institute (NCI) Developmental Therapeutics Program Chemical Repository (32). The FDA-approved anticancer drug set is available from the Developmental Therapeutics Program at https://dtp.cancer.gov/organization/dscb/obtaining/available plates.htm. […] The stock solutions were prepared in dimethyl sulfoxide (DMSO, Sigma-Aldrich, St. Louis, MO, cat. D2650), except for the platinum compounds which were prepared in saline (Quality Biological, Gaithersburg, MD, cat. 114-055-101), at 800-fold the tested concentration and stored at -70 degrees C prior to their use. All drugs and investigational agents were tested over a range starting from a high concentration at or near the clinical Cmax and decreasing in half-log increments. If the clinical Cmax for an agent had not been determined, the highest concentration tested was 10 microM (Table 1).
Cell Culture. All cells were maintained in an incubator at 37 degrees C and 5% CO2 with 95% humidity. The PDC lines were cultured according to standard operating procedures established by the NCI PDMR (https://pdmr.cancer.gov). Briefly, all PDCs were thawed and cultured in Matrigel-coated flasks prepared with a working solution of 1X Ham's F-12 nutrient mix, without supplementation (Invitrogen, Waltham, MA, cat. 11765054), 100 U/mL penicillin-streptomycin (Invitrogen, cat. 15140122), and 2.5% Matrigel (Corning Inc., Corning, NY, cat. 354248) for the first three passages. All PDCs were cultured in complete DMEM/F-12 media containing advanced DMEM/F-12 (Invitrogen, cat. 12634028), 4.9% defined fetal bovine serum, heat inactivated (HyClone Laboratories Inc., Logan, UT, cat. SH30070.03HI), 389 ng/mL hydrocortisone (Sigma-Aldrich, cat. H4001), 9.7 ng/mL human EGF recombinant protein (Invitrogen, cat. PHG0313), 23.4 microg/mL adenine (Sigma-Aldrich, cat. A2786), 97.3 U/mL penicillin-streptomycin (Invitrogen, cat. 15140122), 1.9 mM L-glutamine (Invitrogen, cat. 25030081), and 9.7 microM Y-27632 dihydrochloride (Tocris Bioscience, Bristol, United Kingdom, cat. 1254). The PDCs were cultured in complete DMEM/F12 media without 10 microM Y-27632 dihydrochloride for at least two passages prior to the screen. The established cell lines NCI-H1341 and […] were cultured in DMEM/F-12, HEPES (Invitrogen, cat. 11330032), 5% defined fetal bovine serum (HyClone Laboratories Inc., cat. SH30070.03), ITS premix universal culture supplement [insulin (5 microg/mL), transferrin (5 microg/mL), and selenious acid (5 ng/mL)] […]

[1] = curve of first compound, second compound 0.1 µM
[2] = curve of first compound, second compound 0.316 µM
[3] = curve of first compound, second compound 1 µM
[4] = curve of first compound, second compound 3.16 µM
[5] = curve of first compound, second compound 10 µM
[6] = second compound 0.1 µM, first compound 0.0316 µM
[7] = second compound 0.1 µM, first compound 0.1 µM
[8] = second compound 0.316 µM, first compound 0.0316 µM
[9] = second compound 0.316 µM, first compound 0.1 µM
[10] = second compound 1 µM, first compound 0.0316 µM
[11] = second compound 1 µM, first compound 0.1 µM
[12] = second compound 3.16 µM, first compound 0.0316 µM
[13] = second compound 3.16 µM, first compound 0.1 µM
[14] = second compound 10 µM, first compound 0.0316 µM
[15] = second compound 10 µM, first compound 0.1 µM
[16] = second compound 0.1 µM, first compound 0.000316 µM
[17] = second compound 0.1 µM, first compound 0.001 µM
[18] = second compound 0.1 µM, first compound 0.00316 µM
[19] = second compound 0.1 µM, first compound 0.01 µM
[20] = second compound 0.316 µM, first compound 0.000316 µM
[21] = second compound 0.316 µM, first compound 0.001 µM
[22] = second compound 0.316 µM, first compound 0.00316 µM
[23] = second compound 0.316 µM, first compound 0.01 µM
[24] = second compound 1 µM, first compound 0.000316 µM
[25] = second compound 1 µM, first compound 0.001 µM
[26] = second compound 1 µM, first compound 0.00316 µM
[27] = second compound 1 µM, first compound 0.01 µM
[28] = second compound 3.16 µM, first compound 0.000316 µM
[29] = second compound 3.16 µM, first compound 0.001 µM
[30] = second compound 3.16 µM, first compound 0.00316 µM
[31] = second compound 3.16 µM, first compound 0.01 µM
[32] = second compound 10 µM, first compound 0.000316 µM
[33] = second compound 10 µM, first compound 0.001 µM
[34] = second compound 10 µM, first compound 0.00316 µM
[35] = second compound 10 µM, first compound 0.01 µM
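Further: exposure lasted 7 days after dosing on day 3 of spheroid growth.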

Nc1ccccc1NC(=O)c1ccc(CNC(=O)OCc2cccnc2)cc1 + Cc1ccccc1N=Nc1ccc(NC(=O)c2ccnn2C)c(C)c1
1140 nM: IC50 [5]
inactive: viability, T/C [6] 102% | viability, T/C [7] 103% | viability, T/C (second compound 0.1 µM, first compound 0.316 µM) 77.5% | viability, T/C (second compound 0.1 µM, first compound 1 µM) 51% | viability, T/C (second compound 0.1 µM, first compound 3.16 µM) 23.3% | viability, T/C [8] 85.7% | viability, T/C [9] 95% | viability, T/C (second compound 0.316 µM, first compound 0.316 µM) 86% | viability, T/C (second compound 0.316 µM, first compound 1 µM) 49.5% | viability, T/C (second compound 0.316 µM, first compound 3.16 µM) 18.6% | viability, T/C [10] 87.6% | viability, T/C [11] 88.5% | viability, T/C (second compound 1 µM, first compound 0.316 µM) 76.7% | viability, T/C (second compound 1 µM, first compound 1 µM) 44.8% | viability, T/C (second compound 1 µM, first compound 3.16 µM) 20.1% | viability, T/C [12] 80.2% | viability, T/C [13] 84.7% | viability, T/C (second compound 3.16 µM, first compound 0.316 µM) 70.6% | viability, T/C (second compound 3.16 µM, first compound 1 µM) 44.8% | viability, T/C (second compound 3.16 µM, first compound 3.16 µM) 16.6% | viability, T/C [14] 79.5% | viability, T/C [15] 76.6% | viability, T/C (second compound 10 µM, first compound 0.316 µM) 72.4% | viability, T/C (second compound 10 µM, first compound 1 µM) 51.9% | viability, T/C (second compound 10 µM, first compound 3.16 µM) 25.4%
818 nM: IC50 [4]
active: viability, T/C (second compound 0.1 µM, first compound 10 µM) 1.52% | viability, T/C (second compound 0.316 µM, first compound 10 µM) 1.3% | viability, T/C (second compound 1 µM, first compound 10 µM) 1.53% | viability, T/C (second compound 3.16 µM, first compound 10 µM) 1.32% | viability, T/C (second compound 10 µM, first compound 10 µM) 2.23%
901 nM: IC50 [3]
1060 nM: IC50 [1]
1080 nM: IC50 [2]

Cn1ncnc1C1c2n[nH]c(=O)c3cc(F)cc(c23)NC1c1ccc(F)cc1 (stereo unspecified) + Cc1ccccc1N=Nc1ccc(NC(=O)c2ccnn2C)c(C)c1
> 100 nM: IC50 [1] | IC50 [2] | IC50 [3] | IC50 [4] | IC50 [5]
inactive: viability, T/C [16] 98.1% | viability, T/C [17] 97.5% | viability, T/C [18] 92.7% | viability, T/C [19] 88.7% | viability, T/C [6] 89.2% | viability, T/C [7] 79.9% | viability, T/C [20] 76.4% | viability, T/C [21] 85.7% | viability, T/C [22] 82.7% | viability, T/C [23] 83.4% | viability, T/C [8] 71.9% | viability, T/C [9] 78.3% | viability, T/C [24] 87.5% | viability, T/C [25] 87.1% | viability, T/C [26] 86.1% | viability, T/C [27] 78.6% | viability, T/C [10] 81% | viability, T/C [11] 81.1% | viability, T/C [28] 82% | viability, T/C [29] 80.1% | viability, T/C [30] 78.4% | viability, T/C [31] 87.3% | viability, T/C [12] 84.6% | viability, T/C [13] 85.5% | viability, T/C [32] 70.4% | viability, T/C [33] 98.1% | viability, T/C [34] 75.8% | viability, T/C [35] 81.8% | viability, T/C [14] 63.6% | viability, T/C [15] 76%

Cc1ccccc1N=Nc1ccc(NC(=O)c2ccnn2C)c(C)c1
inactive: viability, T/C (compound 0.1 µM) 90.3% [middle of 20 runs] | viability, T/C (compound 0.316 µM) 84.6% [middle of 20 runs] | viability, T/C (compound 1 µM) 84.5% [middle of 19 runs] | viability, T/C (compound 3.16 µM) 77% [middle of 20 runs] | viability, T/C (compound 10 µM) 77% [middle of 21 runs]
> 10000 nM: IC50 (compound alone, run of 06/14/2022)

CC[C@@]1(O)C(=O)OCc2c1cc1n(c2=O)Cc2cc3c(CN(C)C)c(O)ccc3nc2-1 + Cc1cncc(-c2nc(NCCc3c[nH]c4ccccc34)c3ncn(C(C)C)c3n2)c1
< 0.316 nM: IC50 [5]
> 100 nM: IC50 [1] | IC50 [2] | IC50 [3] | IC50 [4]
inactive: viability, T/C [16] 76.2% | viability, T/C [17] 75.1% | viability, T/C [18] 79.8% | viability, T/C [19] 71% | viability, T/C [6] 69.8% | viability, T/C [7] 74.3% | viability, T/C [20] 86.3% | viability, T/C [21] 80.7% | viability, T/C [22] 74.3% | viability, T/C [23] 79.4% | viability, T/C [8] 68.1% | viability, T/C [9] 64.7% | viability, T/C [24] 93.5% | viability, T/C [25] 93.9% | viability, T/C [26] 83.9% | viability, T/C [27] 85.6% | viability, T/C [10] 88.9% | viability, T/C [11] 76.7% | viability, T/C [28] 96.6% | viability, T/C [29] 84.6% | viability, T/C [30] 89.7% | viability, T/C [31] 91.9% | viability, T/C [12] 84.6% | viability, T/C [13] 73.1% | viability, T/C [32] 45.7% | viability, T/C [33] 47.8% | viability, T/C [34] 47.9% | viability, T/C [35] 46.8% | viability, T/C [14] 35.4% | viability, T/C [15] 32.1%
